Experimental data reported in patent US7951819B2, “Imidazo[4, 5-B]pyridin-2-one and oxazolo[4, 5-B] pyridin-2-one compounds and analogs thereof as cancer therapeutic compounds” (Cancer Research Technology Limited, priority 2006, dated 2011).
pIC50: −log10 of the molar value.

Legend:
V600E B-RAF = molecular target: T1, V600E B-RAF (Homo sapiens, UniProt P15056, V600E); assay: BRAF V600E Kinase Assay; assay type: biochemical
T1 construct: MDRGSH6 (MDRGS-His6) (N); made in house; host or cells: SF9 insect cells (detergent soluble extract / lysate, not purified)
Description: B-raf kinase activity is measured using a 4-tiered cascade enzyme assay similar to that described by Marais R., et al., 1997, J. Biol. Chem., Vol. 272, pp. 4378-4383. B-Raf containing the V600E mutation (Davies, H., et al., 2002, Nature, Vol. 417, pp. 949-954) and an N-terminal MDRGSH6 tag is expressed in SF9 insect cells. Detergent soluble extracts from these cells are diluted 1:100 into an assay mixture containing GST-MEK-H6 (6.5 μg/ml) and GST-ERK-H6 (100 μg/ml) in a buffer containing 800 μM ATP and appropriate concentrations of inhibitor or diluent as control. The mixture is incubated for up to 10 minutes at 30° C. to activate the ERK in a B-Raf dependent manner within the cascade. […] The extent of activation of the GST-ERK is then determined by adding a portion of this quenched reaction mixture to a further reaction mixture containing MBP and 100 μM ATP/gamma [^32P]ATP. After 12 minutes' incubation at 30° C., the incorporation of [^32P] into the MBP substrate, as a measure of B-raf activity, is determined by precipitation with phosphoric acid and isolation by filtration on p81 phosphocellulose paper. […]
Alternatively, B-raf kinase activity is measured using a different 4-tiered cascade enzyme assay. […] The extent of activation of the GST-ERK is then determined by adding 0.033 μL (100 μM) HOT ^32Pα. […]
Compounds were assessed by a kinase assay performed according to the following protocol. […]

ppERK = assay: Phospho-ERK Cell-based Assay; details: cells incubated with test compound for 6 hours
Description: Compounds were assessed using cell-based assays which were performed according to the following protocol.
Plate out 16,000 cells/well in 99 μL medium in a 96-well plate.
2. Incubate the cells with test compound for 6 hours at 37° C.
5. Add 50 μL of 3 μg/mL primary antibody ppERK (Sigma M8159), diluted in 5% milk powder/TBS, to each well.
13. Read Europium Time Resolved Fluorescence in Victor2.
Note that Europium counts are normalised for protein levels by dividing counts by absorbance.

WM266.4 melanoma cells = assay: Cell proliferation (SRB) assay; assay type: cell-based; details: Homo sapiens, WM 266-4, 144 h, 6 days growth
Description: Cultures of WM266.4 melanoma cells are routinely cultured in DMEM/10% foetal bovine serum, at 37° C., in 5% CO2 water saturated atmosphere. Cultures are maintained in exponential growth phase by sub-culturing before having become confluent (3-5 day intervals). Single cell suspensions are prepared by harvesting an 80 cm^2 tissue culture flask with 5 mL commercial trypsin EDTA. After 5 minutes, the detached cells are mixed with 5 mL fully complemented culture medium and centrifugally pelleted (1000 rpm for 7 minutes). After aspirating the supernatant, the cell pellet is re-suspended in 10 mL fresh medium and the cells fully disaggregated by drawing the whole volume up/down 5 times through a 19-gauge needle. The concentration of the cells is determined using a haemocytometer (1/10 dilution). A suitable volume to give at least a 2-fold excess for the number of tests being conducted, typically 100-200 mL, is prepared by diluting the cell suspension to 10,000/mL, and 100 μL/well dispensed into 96 well plates using a programmable 8-channel peristaltic pump, giving 1000 cells/well, leaving column 12 blank. […] The absorbance at 540 nm in each well (being proportional to the number of cells present) is determined using a plate reader. After averaging the results in rows A-D and E-H, the blank value ([…]) is subtracted, and results expressed as percentage of the untreated value (row 11). […]

T1 sequence (P15056 whole entry V600E): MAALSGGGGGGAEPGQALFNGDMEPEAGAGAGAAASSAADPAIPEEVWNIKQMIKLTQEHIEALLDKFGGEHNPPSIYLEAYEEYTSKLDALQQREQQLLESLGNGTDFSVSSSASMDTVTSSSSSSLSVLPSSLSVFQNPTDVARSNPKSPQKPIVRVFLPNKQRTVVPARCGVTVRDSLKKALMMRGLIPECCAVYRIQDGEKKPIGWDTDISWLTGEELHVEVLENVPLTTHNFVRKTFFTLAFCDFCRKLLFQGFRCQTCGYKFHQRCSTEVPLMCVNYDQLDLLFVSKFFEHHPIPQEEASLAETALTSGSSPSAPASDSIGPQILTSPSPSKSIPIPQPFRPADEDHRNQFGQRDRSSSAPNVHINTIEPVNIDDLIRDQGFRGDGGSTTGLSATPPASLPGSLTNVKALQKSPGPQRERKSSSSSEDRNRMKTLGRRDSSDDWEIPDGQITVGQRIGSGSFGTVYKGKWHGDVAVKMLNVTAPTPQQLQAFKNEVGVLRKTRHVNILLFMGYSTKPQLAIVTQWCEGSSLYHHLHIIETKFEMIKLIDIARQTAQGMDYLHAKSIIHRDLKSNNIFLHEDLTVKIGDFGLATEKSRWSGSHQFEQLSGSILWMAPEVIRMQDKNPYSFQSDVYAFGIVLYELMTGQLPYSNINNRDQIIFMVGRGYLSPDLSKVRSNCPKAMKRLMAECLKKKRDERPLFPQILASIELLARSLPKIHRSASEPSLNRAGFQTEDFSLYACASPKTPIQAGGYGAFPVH

pIC50 (V600E B-RAF): 7.82 | pIC50 (ppERK): 4.97 | pIC50 (WM266.4 melanoma cells): 5.38
Compound: O=C(Nc1cccc(Oc2ccnc3[nH]c(=O)[nH]c23)c1)Nc1ccc(Cl)c(C(F)(F)F)c1 [CJS 3678, 1-(4-Chloro-3-(trifluoromethyl)phenyl)-3-(3-(2-oxo-2,3-dihydro-1H-imidazo[4,5-b]pyridin-7-yloxy)phenyl)urea]
